Source: patent EP1795539B1, “Cell penetrating peptides for intracellular delivery of molecules” (Centre National de la Recherche Scientifique, priority 2005, dated 2007)
Where two headings read alike, the source gives them in different places. Numbered stars: 1 amine (or outer) side, 2 acyl side, 3 side chain; on linkers, the order of the positions; unused ones are H or OH. Peptide text beside a SMILES is read from it. Cysteamide = C(CS[*:3])N[*:1]

Experiments:
[1] = system: HS-68 and Hela cells; test: Toxicity of CADY variants, MTT cell viability assay (Table 1); format: cell-based
Experimental: The toxicity of CADY peptides has been investigated on different cell lines. Cells were incubated in the presence of increasing concentrations of CADY (from 0.1 µM to 1 mM) for 12 hrs and cell viability was estimated using MTT assay.

[2] = system: 5PC3 or Human H1299 adenocarcinoma cells; test: Intravenous injection of carrier/anti-cyclin B1 siRNA complexes, tumor growth; format: in vivo, NCR nude mice; conditions: one intravenous injection, siRNA 10 µg, ratio 1:20
[3] = system: different cell lines; format: cell-based; conditions: 12 h
Experimental: • Figure 1 : Schematic representation of CADY cellular uptake mechanism. • Figure 2 : Structure of CADY in the interaction with the membrane. • (A) modelisation • (B) CD experiments - Far UV CD spectra were recorded on a JASCO J-810 spectro-polarimeter (JASCO Corporation, Tokyo, Japan) using a quartz cuvette with a path length of 1 mm. Spectra were corrected from the baseline buffer spectrum and smoothed with the JASCO software. Peptides were dissolved to a fixed concentration of 50 µM in water or in PBS. CD spectra were collected at 23°C and each spectrum represents the average of 4 scans. […] Binding of cargoes to CADY was monitored by steady state fluorescence spectroscopy. The intrinsic fluorescence associated to the Trp residues of CADY was used as sensitive probe. The fluorescence of CADY is centered at 340 nm upon excitation at 290 nm. […] The knockdown of the GAPDH at the protein level was quantified 48 hrs after transfection by Western blot analysis using polyclonal antibody (Ref. ABCAM GAPDH antibody - ab9385 rabbit polyclonal). […] The size of the particle was determined by light scattering and the knock down of GAPDH protein was quantified by Western blot analysis. • (B) role of the endosomal pathway on the efficiency of CADY-mediated siRNA delivery. […]

[4] = target: short 17-residues peptide (cargo used with CADY-2); test: steady state Trp fluorescence quenching; fixed CADY (0.1 uM) titrated with cargo peptide; quadratic fit

With CC(C)CCC[C@@H](C)[C@H]1CC[C@H]2[C@@H]3CC=C4C[C@@H](OC(=O)NCC(=O)N[C@@H](CC(C)C)C(=O)N[C@@H](Cc5c[nH]c6ccccc56)C(=O)N[C@@H](CCCNC(=N)N)C(=O)N[C@@H](C)C(=O)N[C@@H](CC(C)C)C(=O)N[C@@H](Cc5c[nH]c6ccccc56)C(=O)N[C@@H](CCCNC(=N)N)C(=O)N[C@@H](CC(C)C)C(=O)N[C@@H](CC(C)C)C(=O)N[C@@H](CCCNC(=N)N)C(=O)N[C@@H](CO)C(=O)N[C@@H](CC(C)C)C(=O)N[C@@H](Cc5c[nH]c6ccccc56)C(=O)N[C@@H](CCCNC(=N)N)C(=O)N[C@@H](CC(C)C)C(=O)N[C@@H](CC(C)C)C(=O)N[C@@H](Cc5c[nH]c6ccccc56)C(=O)N[C@@H](CCCCN)C(=O)N[C@@H](C)C(=O)NCCS)CC[C@]4(C)[C@H]3CC[C@]12C [CADY-S] (HELM PEPTIDE1{[CC(C)CCC[C@@H](C)[C@H]1CC[C@H]2[C@@H]3CC=C4C[C@@H](OC(=O)[*:2])CC[C@]4(C)[C@H]3CC[C@]12C].G.L.W.R.A.L.W.R.L.L.R.S.L.W.R.L.L.W.K.A.[SCCN[*:1]]}$$$$V2.0; N-terminus assumed) the EC50 ([1]; 12 h) was 200 µM and the tumor growth [2] was “fully abolish the tumor growth”.

CC(=O)NCC(=O)N[C@@H](CC(C)C)C(=O)N[C@@H](Cc1c[nH]c2ccccc12)C(=O)N[C@@H](CCCNC(=N)N)C(=O)N[C@@H](C)C(=O)N[C@@H](CC(C)C)C(=O)N[C@@H](Cc1c[nH]c2ccccc12)C(=O)N[C@@H](CCCNC(=N)N)C(=O)N[C@@H](CC(C)C)C(=O)N[C@@H](CC(C)C)C(=O)N[C@@H](CCCNC(=N)N)C(=O)N[C@@H](CO)C(=O)N[C@@H](CC(C)C)C(=O)N[C@@H](Cc1c[nH]c2ccccc12)C(=O)N[C@@H](CCCNC(=N)N)C(=O)N[C@@H](CC(C)C)C(=O)N[C@@H](CC(C)C)C(=O)N[C@@H](Cc1c[nH]c2ccccc12)C(=O)N[C@@H](CCCCN)C(=O)N[C@@H](C)C(=O)NCCS [CADY-1] (HELM PEPTIDE1{[ac].G.L.W.R.A.L.W.R.L.L.R.S.L.W.R.L.L.W.K.A.[SCCN[*:1]]}$$$$V2.0) gave an EC50 [3] of 500 µM and an EC50 ([1]; free peptide, MTT, read-out: free EC50) of 400 µM.

With CC(=O)NCC(=O)N[C@@H](CC(C)C)C(=O)N[C@@H](Cc1c[nH]c2ccccc12)C(=O)N[C@@H](CCCNC(=N)N)C(=O)N[C@@H](C)C(=O)N[C@@H](CC(C)C)C(=O)N[C@@H](Cc1c[nH]c2ccccc12)C(=O)N[C@@H](CCCNC(=N)N)C(=O)N[C@@H](CC(C)C)C(=O)N[C@@H](CC(C)C)C(=O)N[C@@H](CCCNC(=N)N)C(=O)N[C@@H](CO)C(=O)N[C@@H](CC(C)C)C(=O)N[C@@H](Cc1c[nH]c2ccccc12)C(=O)N[C@@H](CCCNC(=N)N)C(=O)N[C@@H](CC(C)C)C(=O)N[C@@H](CC(C)C)C(=O)N[C@@H](Cc1c[nH]c2ccccc12)C(=O)N[C@@H](CCCCN)C(=O)N[C@@H](C)C(=O)NCCSS[C@H]1CC[C@@]2(C)C(=CC[C@H]3[C@@H]4CC[C@H]([C@H](C)CCCC(C)C)[C@@]4(C)CC[C@@H]32)C1 [CADY-S2] (HELM PEPTIDE1{[ac].G.L.W.R.A.L.W.R.L.L.R.S.L.W.R.L.L.W.K.A.[CC(C)CCC[C@@H](C)[C@H]1CC[C@H]2[C@@H]3CC=C4C[C@@H](SSCCN[*:1])CC[C@]4(C)[C@H]3CC[C@]12C]}$$$$V2.0; N-terminus assumed) the EC50 ([1]; 12 h) was 250 µM.

B1: CADY-2 (Ac-…-Cya) (peptide)
peptide: Ac-GLWRALWRALWRSLWKLKWKV-Cysteamide
With B1 the Kd [4] was 0.019 µM and the ratio at saturation (cargo/CADY molar ratio) [4] was 0.05.
